“Also recorded” adds a separate entry of the source.
How the values were obtained:
[1] = test system: HL-525 cells; test: OKM1 reactivity (immunofluorescence); type: cell-based, human; conditions: TPA 3 nM, RA 1 μM or Vit D3 400 nM, percent OKM1 positive cells
Procedure: (§1) HL-60 cells were originally provided by Dr. R. C. Gallo (National Cancer Institute, Bethesda, Md.) (Collins et al., 1978; Huberman & Callaham, 1979). HL-60 cells designated HL-525 were derived by cloning HL-60 cells after subculturing 102 times in the presence of increasing concentrations (up to 3 μM) of TPA at 5- to 8-day intervals (Homma et al., 1986; Mitchell et al., 1986). […] Prior to the experiments described in this study, the HL-525 cells were subcultured more than 20 times in the absence of TPA. Cells were grown in 100-mm tissue culture dishes in RPMI 1640 medium supplemented with 20% fetal bovine serum, penicillin (100 units/ml) and streptomycin (100 μg/ml) (Grand Island Biological Co., NY) at 37° C. in an atmosphere of 5% CO2 in air in a humidified incubator. The 1,25-(OH)2D3(Vit D3) and TPA were dissolved in a final concentration of 0.01% DMSO, and all-trans retinoic acid (RA) was dissolved in 0.1% DMSO in culture medium. […] Control cultures were treated with DMSO at a final concentration of 0.1% in culture medium. For experiments designed to test the effect of DMSO on HL-60 and HL-525 cells, DMSO was added to tissue culture medium at a final concentration of 1%. Stock solutions of CHX (10 mg/ml) were prepared in culture medium. CHX was added at a final concentration of 10 μg/ml. To examine a requirement for protein synthesis on mda-6 gene expression, HL-60 or HL-525 cells were seeded into 150 mm Petri dishes (5×10^5 cells/ml) in 30 ml of medium. CHX was added to a final concentration of 10 μg/ml 15 min prior to the addition of TPA to 3 nM. Cells were harvested at various times after addition of TPA for subsequent RNA isolation and analysis.
(§2) Cell counts were determined by hemocytometer chamber counting. Immunofluorescence tests for reactivity with the OKM1 antibody (Ortho Pharmaceutical Corp., Raritan, N.J.) were performed as previously described (Murao et al., 1983).

[2] = test system: HL-60 cells; test: OKM1 reactivity (immunofluorescence); type: cell-based, human; conditions: TPA 3 nM, RA 1 μM or Vit D3 400 nM, percent OKM1 positive cells
Procedure: as §1, §2

[3] = test system: mda-6 (WAF1/CIP1/SDI1); type: cell-based, human; conditions: HL-525; TPA 3 nM, Vit D3 400 nM, RA 1 μM; 1 to 12 h test period
Procedure: as §1
RNA was purified by centrifugation through a CsC1 cushion as described by Chirgwin et al. (1979). Ten μg of RNA was denatured with glyoxal/DMSO, electrophoresed on 1.0% agarose gels, transferred to nylon membranes, hybridized to a ^32P-labeled mda-6 probe (Jiang and Fisher, 1993) and then after stripping the membrane hybridized to a ^32P-labeled rat GAPDH probe (Fort et al., 1985), as described previously (Reddy et at., 1991; Su et al., 1991; Jiang et al., 1992). Following hybridization, the filters were washed and exposed for autoradiography (Reddy et al., 1991; Su et al., 1991; Jiang et al., 1992). mda-6 and GAPDH gene expression were also determined by reverse transcription-polymerase chain reaction (RT-PCR) as described (Adollahi et al. 1991; Lin et al., 1994). Total cytoplasmic RNA was treated with 0.5 units DNase (Boehringer-Mannheim Biochemicals)/μg RNA in 15% glycerol, 10 mM Tris, pH 7.5, 2.5 mM MgCl2, 0.1 mM EDTA, 80 mM KC1, 1 mM CaCl2 and 1 unit/ml RNasin (Promega) at 30° C. for 10 min. RNA was extracted with phenol-chloroform, precipitated with sodium acetate/ethanol and RNA pellets were resuspended in diethylpyrocarbonate-treated H2O. One μg of total RNA was reverse transcribed with 200 units of murine leukemia virus reverse transcriptase (Bethesda Research Laboratories) in 20 μl containing 1 mM deoxyribonucleotide triphosphates, 4 mM MgCl2, 10 mM Tris, pH 8.3, 50 mM KC1, 0.001% gelatin and 0.2 μg oligo-dT primer. Samples were diluted to 100 μl with buffer containing 0.2 mM deoxyribonucleotide triphosphates, 2 mM MgCl2, 10 mM Tris, pH 8.3, 50 mM KC1 and 0.001% gelatin. […]

[4] = test system: H0-1 human melanoma cell line; test: 96-h growth suppression (cell number by Coulter Counter); type: cell-based; conditions: Table 2; H0-1 cells; degree of initial 96 hr growth suppression versus untreated control
Procedure: FIG. 1A-B Effect of continuous exposure to various growth and differentiation modulating agents on the 96-h growth of the human melanoma cell line, H0-1. Cells were seeded at 5×10^4/35-mm tissue culture plate and 24 h later the medium was changed with the indicated compounds. Cell numbers were determined by Coulter Counter after 96-h growth. Further details can be found in Materials and Methods.
The H0-1 cell line is a melanotic melanoma derived from a person and was used between passage 100 and 125 (6,8,13). H0-1 cells were kindly provided by Dr. Beppino C. Giovanella, Stehlin Foundation for Cancer Research, Houston, Tex. Cultures were grown at 37° C. in a 95% air 5% CO2-humidified incubator in Dulbecco's modified Eagle's medium (DMEM) supplemented with 10% fetal bovine serum (DMEM-10) (Hyclone, Logan, Utah). H0-1 cells were maintained in the logarithmic stage of growth by subculturing (1:5 or 1:10) prior to confluency approximately every 4 to 5 days. […] Total cell numbers were determined after days 4, 7, 14, and 21, using a ZM Coulter Counter, and viable cell numbers were determined by trypan blue dye exclusion (6). […] Increases in cell number (two or more population doublings) after removal of the inducing agent(s) was considered reversible growth suppression. […] Conditioned medium was collected from treated cultures, contaminating cells were removed by centrifugation at 1000 rpm/10 min., and conditioned medium was stored at 4° C. until assayed for gene modulatory activity. Control conditioned medium was obtained as experimental conditioned medium from cells receiving only a medium change 24 hours after plating in the absence of test compound(s) and growth for 72 hours in DMEM-10.

[5] = test system: H0-1 cells; test: Northern blotting analysis of steady-state mRNA levels; type: cell-based, human; conditions: FIG. 1 concentrations
Procedure: Steady-state levels of specific mRNAs were determined by Northern blotting analysis of total RNA probed with appropriate ^32P-labeled gene probes as described previously (14-16). RNAs were analyzed from cells treated with inducer for 24 hours, treated for 24 hours with inducer followed by growth for 72 hours in the absence of inducer, or treated continuously for 96 hours with the inducer. The concentration of inducing compounds used were the same as those used for growth studies. The effect of conditioned medium on gene expression changes was determined by treating H0-1 cells for 24 hours with a 1:2 dilution of conditioned medium (equal volumes of conditioned medium and DMEM supplemented with 10% fetal bovine serum (DMEM-10) or for 96 hours with a 1:4 dilution of conditioned medium (1 vol. of conditioned medium to 3 vol. of DMEM-10). The probes used in the present study were specific for β-actin (17), γ-actin (17), c-jun (18), c-myc (19), fibronectin (20), gro/MGSA (21), HLA Class I antigen (22), HLA Class II antigen (HLA-DRβ) (22), α5 integrin (23), β1 integrin (24), ISG-15 (25), ISG-54 (25), jun-B (26), and tenascin (27). Northern blots were also probed with a ^32P-labeled GAPDH gene (15) to verify similar mRNA expression under the various experimental conditions. Following hybridization, the filters were washed and exposed for autoradiography.

[6] = test system: mda-4; test: mda-4 expression (Northern blotting); type: cell-based, human; conditions: H0-1; 96 hours; doses of FIG. 15 legend
Procedure: (§3) The mass excision of the library was performed using ExAssist helper phage as described above. The SOLR strain of Escherichia coli and cDNA phagemids were mixed at 37° C. for 15 min and plated onto LB plates containing ampicillin and IPTG/X-gal. White colonies were chosen at random, isolated and grown in LB medium. Plasmid minireps and restriction enzyme digestions were performed to confirm the presence of inserts. The inserts were isolated and used as robes for Northern blotting analysis (5,25). […] Radiolabeled probes were generated by random oligonucleotide priming (25). Prehybridization, hybridization, posthybridization washes, and autoradiography were performed as described (5,18,25).

[7] = test system: mda-5; test: mda-5 expression (Northern blotting); type: cell-based, human; conditions: H0-1; 96 hours; doses of FIG. 15 legend
Procedure: as §3

[8] = test system: mda-6; test: mda-6 expression (Northern blotting); type: cell-based, human; conditions: H0-1; 96 hours; doses of FIG. 15 legend
Procedure: as §3
Total cytoplasmic RNA was isolated and Northern blotting hybridization was performed as described (Reddy et al., 1991; Su et al., 1991; Jiang et al., 1992). Ten μg of RNA was denatured with glyoxal/DMSO, electrophoresed on 1.0% agarose gels, transferred to nylon membranes and hybridized to a ^32P-labeled p53 probe (Baker et al., 1990). The nylon membrane was stripped and hybridized to a ^32P-labeled mda-6 probe (Jiang and Fisher, 1993) and then after a second stripping the membrane was hybridized to a ^32P-labeled rat GAPDH probe (Fort et al., 1985), as described previously (Reddy et al., 1991; Su et al., 1991; Jiang et al., 1992). Following hybridization, the filters were washed and exposed for autoradiography (Reddy et al., 1991; Su et al., 1991; Jiang et al., 1992). mda-6 and GAPDH gene expression were also determined by reverse transcription-polymerase chain reaction (RT-PCR) as described (Adollahi et al., 1991; Lin et al., 1994; Jiang et al., 1994b). Total cytoplasmic RNA was treated with 0.5 units DNase (Boehringer-Mannheim Biochemicals)/μg RNA in 15% glycerol, 10 mM Tris, pH 7.5, 2.5 mM MgCl2, 0.1 mM EDTA, 80 mM KCl, 1 mM CaCl2 and 1 unit/ml RNasin (Promega) at 30° C. for 10 min. RNA was extracted with phenol-chloroform, precipitated with sodium acetate/ethanol and RNA pellets were resuspended in diethylpyrocarbonate-treated H2O. One μg of total RNA was reverse transcribed with 200 units of murine leukemia virus reverse transcriptase (Bethesda Research Laboratories) in 20 μl containing 1 mM deoxyribonucleotide triphosphates, 4 mM MgCl2, 10 mM Tris, pH 8.3, 50 mM KCl, 0.001% gelatin and 0.2 μg oligo-dT primer. Samples were adjusted to 100 μl with buffer containing 0.2 mM deoxyribonucleotide triphosphates, 2 mM MgCl2, 10 mM Tris, pH 8.3, 50 mM KCl and 0.001% gelatin. Fifty pmol of each primer, 1.5 units Taq DNA polymerase (Perkin-Elmer Cetus) were added and samples were covered with mineral oil, heated at 95° C. for 5 min and subjected to 25 cycles of PCR in a Perkin-Elmer Thermal Cycler using 1 min denaturation at 94° C., 2 min annealing at 55° C. and 3 min polymerization at 72° C. After extraction with chloroform, 20 μl of products were electrophoresed, blotted onto nylon filters and hybridized with an mda-6 or GAPDH specific probe. The mda-6 primers were 5′ to 3′ […] (SEQ ID NO:26) and […] (SEQ ID NO:27)(corresponding to nt 1527 to 1546) (GenBank accession number U09579); and the GAPDH primers were 5′ to 3′ […] (SEQ ID NO:28)and […] (SEQ ID NO:29)(corresponding to nt 1070 to 1053) (Tokunaga et al., 1987).

[9] = test system: mda-7; test: mda-7 expression (Northern blotting, RT-PCR); type: cell-based, human; conditions: H0-1; 96 hours; doses of FIG. 15 legend
Procedure: as §3

[10] = test system: mda-8; test: mda-8 expression (Northern blotting); type: cell-based, human; conditions: H0-1; 96 hours; doses of FIG. 15 legend
Procedure: as §3

[11] = test system: mda-9; test: mda-9 expression (Northern blotting); type: cell-based, human; conditions: H0-1; 96 hours; doses of FIG. 15 legend
Procedure: as §3

| Compound | OKM1 reactivity, Days of induction 4 [1] | OKM1 reactivity, Days of induction 6 [1] | OKM1 reactivity, Days of induction 4 [2] | OKM1 reactivity, Days of induction 6 [2] | time of treatment at which mda-6 expression is induced [3] | Growth Suppression (reversible) [4] | HLA Class I antigen gene expression ([5]; 96 h) | HLA Class II antigen gene (HLA-DRβ) expression ([5]; 96 h) | fibronectin expression ([5]; 96 h) | induction of gro/MGSA gene expression ([5]; 96 h) | tenascin expression ([5]; 96 h) | β1 integrin expression ([5]; 96 h) | c-jun and jun-B expression ([5]; 96 hours) | c-myc expression ([5]; 96 hours) | mda-4 expression [6] | mda-5 expression [7] | mda-6 expression [8] | mda-7 expression [9] | mda-8 expression [10] | mda-9 expression [11] |
| --- | --- | --- | --- | --- | --- | --- | --- | --- | --- | --- | --- | --- | --- | --- | --- | --- | --- | --- | --- | --- |
| C=C1/C(=C\C=C2/CCC[C@]3(C)[C@@H]([C@H](C)CCCC(C)(C)O)CC[C@@H]23)C[C@@H](O)C[C@@H]1O [Vit D3, 1,25-(OH)2D3] | 84% | 80% | 88% | 95% | ≤ 2 h |  |  |  |  |  |  |  |  |  |  |  |  |  |  |  |
| IFN-γ: Recombinant human immune interferon |  |  |  |  |  | 2+ (2+ = ~40% reduction in growth in comparison with untreated control cultures) | enhanced HLA Class I antigen expression | enhanced expression | most effective single agents | did not induce gro/MGSA expression | enhanced tenascin expression | upregulation | increase | increased c-myc expression | Increased expression | Enhanced expression; also recorded: induced | no significant or reduced alteration in expression | No induction in mda-7 expression; also recorded: does not result in significant mda-7 expression | enhanced mda-8 expression; also recorded: increased mda-8 expression | No change in mda-9 expression |
